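Dose response: 5 concentrations. Exposure: 48 h. Format: 96-well plates. Endpoint: linear interpolation; highest concentration if not reached. TGI denotes the concentration required for complete inhibition of growth.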
Assays:
Test in all cases: inhibition of tumour cell growth, NCI panel, 48 h
786-0 renal = test system: 786-0 renal
A498 renal = test system: A498 renal
A549 NSCLC = test system: A549 NSCLC
ACHN renal = test system: ACHN renal
CAKI-1 renal = test system: CAKI-1 renal
COLO 205 colon = test system: COLO 205 colon
DU-145 prostate = test system: DU-145 prostate
EKVX NSCLC = test system: EKVX NSCLC
HCC-2998 colon = test system: HCC-2998 colon
HCT-116 colon = test system: HCT-116 colon
HCT-15 colon = test system: HCT-15 colon
HL-60(TB) leukemia = test system: HL-60(TB) leukemia
HOP-62 NSCLC = test system: HOP-62 NSCLC
HOP-92 NSCLC = test system: HOP-92 NSCLC
HS 578T breast = test system: HS 578T breast
HT29 colon = test system: HT29 colon
IGROV1 ovarian = test system: IGROV1 ovarian
K-562 leukemia = test system: K-562 leukemia
KM12 colon = test system: KM12 colon
M14 melanoma = test system: M14 melanoma
MALME-3M melanoma = test system: MALME-3M melanoma
MCF7 breast = test system: MCF7 breast
MDA-MB-231 breast = test system: MDA-MB-231 breast
MDA-MB-435 = test system: MDA-MB-435
MOLT-4 leukemia = test system: MOLT-4 leukemia
NCI-H226 lung = test system: NCI-H226 lung
NCI-H23 lung = test system: NCI-H23 lung
NCI-H460 lung = test system: NCI-H460 lung
NCI-H522 lung = test system: NCI-H522 lung
NCI/ADR-RES ovarian = test system: NCI/ADR-RES ovarian
OVCAR-3 ovarian = test system: OVCAR-3 ovarian
OVCAR-4 ovarian = test system: OVCAR-4 ovarian
OVCAR-5 ovarian = test system: OVCAR-5 ovarian
OVCAR-8 ovarian = test system: OVCAR-8 ovarian
PC-3 prostate = test system: PC-3 prostate
RPMI-8226 leukemia = test system: RPMI-8226 leukemia
RXF 393 renal = test system: RXF 393 renal
SF-268 CNS = test system: SF-268 CNS
SF-295 CNS = test system: SF-295 CNS
SF-539 CNS = test system: SF-539 CNS
SK-MEL-2 melanoma = test system: SK-MEL-2 melanoma
SK-MEL-28 melanoma = test system: SK-MEL-28 melanoma
SK-MEL-5 melanoma = test system: SK-MEL-5 melanoma
SK-OV-3 ovarian = test system: SK-OV-3 ovarian
SN12C renal = test system: SN12C renal
SNB-19 CNS = test system: SNB-19 CNS
SNB-75 CNS = test system: SNB-75 CNS
SR leukemia = test system: SR leukemia
SW-620 colon = test system: SW-620 colon
T-47D breast = test system: T-47D breast
TK-10 renal = test system: TK-10 renal
U251 CNS = test system: U251 CNS
UACC-257 melanoma = test system: UACC-257 melanoma
UACC-62 melanoma = test system: UACC-62 melanoma
UO-31 renal = test system: UO-31 renal
CCRF-CEM leukemia = test system: CCRF-CEM leukemia

Measured: TGI

N#Cc1ccc(/C=N/NC(=O)CSCC(=O)N/N=C/c2ccc(C#N)cc2)cc1
81.7 µM: MDA-MB-231 breast
81.9 µM: SNB-75 CNS
not listed: CCRF-CEM leukemia
> 100 µM: all other assays above

N#CCN1CCCCCc2ccccc21
not listed: A498 renal | CAKI-1 renal | NCI-H522 lung | OVCAR-3 ovarian | PC-3 prostate | SK-MEL-2 melanoma
> 100 µM: all other assays above

Reference: PubChem BioAssay (NCI)
